Square brackets hold non-standard residues; d marks the D form. Peptide text beside a SMILES is read from it.
Test system: rumen fluid which contained methane-producing bacteria and other rumen bacteria
Assay: In vitro rumen fermentation test
Assay type: cell-based
Description: Rumen fluid which contained methane-producing bacteria and other rumen bacteria was produced in a fermentor which was set up and maintained to simulate the conditions of a rumen.
The test was carried out in a screw-cap tube which was sealed with a butyl rubber stopper. […] The air in the tube was replaced with a gas mixture of 97% nitrogen-3% hydrogen made free of oxygen by passage through a catalytic purifier. After incubation for 18 hours in a water bath shaker at 39° C., 0.5 ml. of the gas was removed through the stopper into the sample loop of a Fisher Gas Partitioner. The gas sample was partitioned, and the methane produced was compared to a standard gas mixture containing a known amount of methane. The incubation mixture was acidified with 4 ml. of 10% metaphosphoric acid and centrifuged. One μl. of the supernate was analyzed by gas-liquid chromatography. The volatile fatty acids were compared to a standard volatile fatty acid mixture containing known amounts of acetic, propionic, butyric and valeric acids. Appropriate controls were included.

O=C1N[C@H](Cc2ccccc2)C(=O)N2CCC[C@H]2C(=O)N[C@H](Cc2ccccc2)C(=O)N2CCC[C@H]2C(=O)N[C@H](Cc2ccccc2)C(=O)N2CCC[C@@H]12 [cyclo(Pro-D-Phe)3, Cyclo(Pro-D-Phe)3] (cyclo(P[dF]P[dF]P[dF]))
CH4 (methane) produced (250 μg./ml. of tested compound, incubation 18 hours at 39° C., gas partitioner): essentially eliminated
shift in VFA ratios (250 μg./ml. of tested compound, incubation 18 hours at 39° C., gas-liquid chromatography): significant shift in VFA ratios favoring the longer chain acids
Valeric acid, μmols (Treated 16 μg./ml., control 1.8): 4.5 μmols
Valeric acid, μmols % (Treated 16 μg./ml., control 3.0): 7.0 μmols %
Butyric acid, μmols (Treated 16 μg./ml., control 7.1): 15.3 μmols
Butyric acid, μmols % (Treated 16 μg./ml., control 10.5): 25.0 μmols %
Propionic acid, μmols (Treated 16 μg./ml., control 19.5): 23.0 μmols
Propionic acid, μmols % (Treated 16 μg./ml., control 28.5): 37.0 μmols %
Acetic acid, μmols (Treated 16 μg./ml., control 39.9): 18.8 μmols
Acetic acid, μmols % (Treated 16 μg./ml., control 58.5): 31.0 μmols %
Total volatile fatty acids, μmols (Treated 16 μg./ml., control 68.3): 61.6 μmols
production of VFAs (summary of tabulated data) (in vitro rumen fermentation): effective in increasing the production of the VFAs, propionic, butyric and valeric at the expense of methane and acetate
